# Measurements taken from patent US20240124417A1, “COMPOUNDS USEFUL AS IMMUNOMODULATORS” (Bristol-Myers Squibb Company, priority 2019, published 2024).
# Target: T1, PD-1/PD-L1 (Homo sapiens, UniProt Q9NZQ7)
# T1 construct: TVMV protease site linker (C); made in house; host or cells: HEK293T cells
# Assay: PD-1/PD-L1 Homogenous Time-Resolved Fluorescence (HTRF) binding assay
# Conditions: PD-L1-His 10 nM, PD-1-Ig 20 nM
# How it was run: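 Inhibitors pre-incubated 15 min with PD-L1-His extracellular domain (10 nM final) in dPBS with 0.1% BSA and 0.05% Tween-20, then PD-1-Ig (20 nM final) added for a further 15 min. Read-out by HTRF with europium cryptate anti-Ig (1 nM) and APC anti-His (20 nM). Related pairs: PD-1-Ig/PD-L2-His (20/5 nM), CD80-His/PD-L1-Ig (100/10 nM).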
# T1 sequence (Q9NZQ7 18-239): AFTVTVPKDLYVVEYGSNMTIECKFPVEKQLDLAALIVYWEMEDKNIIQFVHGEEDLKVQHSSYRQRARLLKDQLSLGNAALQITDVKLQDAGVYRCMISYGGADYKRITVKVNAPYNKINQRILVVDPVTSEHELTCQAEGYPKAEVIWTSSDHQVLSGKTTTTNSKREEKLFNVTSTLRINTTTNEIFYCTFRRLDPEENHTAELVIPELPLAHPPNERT
row,SMILES,IC50 [nM]
1,"Cc1c(COc2cc(OCc3cncc(C#N)c3)c(CNCc3ccccn3)cc2Cl)cccc1-c1cccc(OCCCN2CC[C@@H](O)C2)c1C [Example 2017, (R)-5-((4-chloro-5-((3′-(3-(3-hydroxypyrrolidin-1-yl)propoxy)-2,2′-dimethyl-[1,1′-biphenyl]-3-yl)methoxy)-2-(((pyridin-2-ylmethyl)amino)methyl)phenoxy)methyl)nicotinonitrile]",2.1
2,"Cc1c(COc2cc(OCc3cncc(C#N)c3)c(CNCc3cccnc3)cc2Cl)cccc1-c1cccc(OCCCN2CC[C@@H](O)C2)c1C [Example 2018, (R)-5-((4-chloro-5-((3′-(3-(3-hydroxypyrrolidin-1-yl)propoxy)-2,2′-dimethyl-[1,1′-biphenyl]-3-yl)methoxy)-2-(((pyridin-3-ylmethyl)amino)methyl)phenoxy)methyl)nicotinonitrile]",0.8
3,"Cc1c(COc2cc(OCc3cncc(C#N)c3)c(CNCc3ccncc3)cc2Cl)cccc1-c1cccc(OCCCN2CC[C@@H](O)C2)c1C [Example 2019, (R)-5-((4-chloro-5-((3′-(3-(3-hydroxypyrrolidin-1-yl)propoxy)-2,2′-dimethyl-[1,1′-biphenyl]-3-yl)methoxy)-2-(((pyridin-4-ylmethyl)amino)methyl)phenoxy)methyl)nicotinonitrile]",4.1
4,"Cc1c(COc2cc(OCc3cncc(C#N)c3)c(CNCc3cccnn3)cc2Cl)cccc1-c1cccc(OCCCN2CC[C@@H](O)C2)c1C [Example 2021, (R)-5-((4-chloro-5-((3′-(3-(3-hydroxypyrrolidin-1-yl)propoxy)-2,2′-dimethyl-[1,1′-biphenyl]-3-yl)methoxy)-2-(((pyridazin-3-ylmethyl)amino)methyl)phenoxy)methyl)nicotinonitrile]",6
5,"Cc1c(COc2cc(OCc3cncc(C#N)c3)c(CNCc3cncnc3)cc2Cl)cccc1-c1cccc(OCCCN2CC[C@@H](O)C2)c1C [Example 2022, (R)-5-((4-chloro-5-((3′-(3-(3-hydroxypyrrolidin-1-yl)propoxy)-2,2′-dimethyl-[1,1′-biphenyl]-3-yl)methoxy)-2-(((pyrimidin-5-ylmethyl)amino)methyl)phenoxy)methyl)nicotinonitrile]",0.8
6,"Cc1c(COc2cc(OCc3cncc(C#N)c3)c(CN(C)Cc3nc4ccccc4[nH]3)cc2Cl)cccc1-c1cccc(OCCCN2CC[C@@H](O)C2)c1C [Example 2023, (R)-5-((2-((((1H-benzo[d]imidazol-2-yl)methyl)(methyl)amino)methyl)-4-chloro-5-((3′-(3-(3-hydroxypyrrolidin-1-yl)propoxy)-2,2′-dimethyl-[1,1′-biphenyl]-3-yl)methoxy)phenoxy)methyl)nicotinonitrile]",8.8
7,"Cc1c(COc2cc(OCc3cncc(C#N)c3)c(CN(C)Cc3nn(C)cc3Cl)cc2Cl)cccc1-c1cccc(OCCCN2CC[C@@H](O)C2)c1C [Example 2027, (R)-5-((4-chloro-2-((((4-chloro-1-methyl-1H-pyrazol-3-yl)methyl)(methyl)amino)methyl)-5-((3′-(3-(3-hydroxypyrrolidin-1-yl)propoxy)-2,2′-dimethyl-[1,1′-biphenyl]-3-yl)methoxy)phenoxy)methyl)nicotinonitrile]",2.3
8,"CCN(CCO)CCCOc1cccc(-c2cccc(COc3cc(OCc4cncc(C#N)c4)c(CNCc4c[nH]cn4)cc3Cl)c2C)c1C [Example 2033, 5-((2-((((1H-imidazol-4-yl)methyl)amino)methyl)-4-chloro-5-((3′-(3-(ethyl(2-hydroxyethyl)amino)propoxy)-2,2′-dimethyl-[1,1′-biphenyl]-3-yl)methoxy)phenoxy)methyl)nicotinonitrile]",2.9
9,"Cc1c(COc2cc(OCc3cncc(C#N)c3)c(CNCc3ccnc(C#N)n3)cc2Cl)cccc1-c1cccc(OCCCN2CC[C@@H](O)C2)c1C [Example 2040, (R)-4-(((5-chloro-2-((5-cyanopyridin-3-yl)methoxy)-4-((3′-(3-(3-hydroxypyrrolidin-1-yl)propoxy)-2,2′-dimethyl-[1,1′-biphenyl]-3-yl)methoxy)benzyl)amino)methyl)pyrimidine-2-carbonitrile]",8.2
10,"Cc1c(COc2cc(OCc3cncc(C#N)c3)c(CNCc3ccnc(C(N)=O)n3)cc2Cl)cccc1-c1cccc(OCCCN2CC[C@@H](O)C2)c1C [Example 2041, (R)-4-(((5-chloro-2-((5-cyanopyridin-3-yl)methoxy)-4-((3′-(3-(3-hydroxypyrrolidin-1-yl)propoxy)-2,2′-dimethyl-[1,1′-biphenyl]-3-yl)methoxy)benzyl)amino)methyl)pyrimidine-2-carboxamide]",1.9
11,"Cc1[nH]cnc1COc1cc(OCc2cccc(-c3cccc(OCCCN4CC[C@@H](O)C4)c3C)c2C)c(Cl)cc1CNCc1ccnc(C#N)n1 [Example 2042, (R)-4-(((5-chloro-4-((3′-(3-(3-hydroxypyrrolidin-1-yl)propoxy)-2,2′-dimethyl-[1,1′-biphenyl]-3-yl)methoxy)-2-((5-methyl-1H-imidazol-4-yl)methoxy)benzyl)amino)methyl)pyrimidine-2-carbonitrile]",89.5
12,"Cc1c(COc2cc(OCc3ncn(C(c4ccccc4)(c4ccccc4)c4ccccc4)c3C)c(CNCc3ccnc(C#N)n3)cc2Cl)cccc1-c1cccc(OCCCN2CC[C@@H](O)C2)c1C [Example 2043, (R)-4-(((5-chloro-4-((3′-(3-(3-hydroxypyrrolidin-1-yl)propoxy)-2,2′-dimethyl-[1,1′-biphenyl]-3-yl)methoxy)-2-((5-methyl-1-trityl-1H-imidazol-4-yl)methoxy)benzyl)amino)methyl)pyrimidine-2-carbonitrile]",> 10000

# Next, values leading:
row,IC50 [nM],SMILES
1,2.7,"Cc1c(COc2cc(OCc3cncc(C#N)c3)c(CNCc3cnccn3)cc2Cl)cccc1-c1cccc(OCCCN2CC[C@@H](O)C2)c1C [Example 2020, (R)-5-((4-chloro-5-((3′-(3-(3-hydroxypyrrolidin-1-yl)propoxy)-2,2′-dimethyl-[1,1′-biphenyl]-3-yl)methoxy)-2-(((pyrazin-2-ylmethyl)amino)methyl)phenoxy)methyl)nicotinonitrile]"
2,0.6,"Cc1c[nH]c(CN(C)Cc2cc(Cl)c(OCc3cccc(-c4cccc(OCCCN5CC[C@@H](O)C5)c4C)c3C)cc2OCc2cncc(C#N)c2)n1 [Example 2024, (R)-5-((4-chloro-5-((3′-(3-(3-hydroxypyrrolidin-1-yl)propoxy)-2,2′-dimethyl-[1,1′-biphenyl]-3-yl)methoxy)-2-((methyl((4-methyl-1H-imidazol-2-yl)methyl)amino)methyl)phenoxy)methyl)nicotinonitrile]"
3,1.6,"Cc1cc(CN(C)Cc2cc(Cl)c(OCc3cccc(-c4cccc(OCCCN5CC[C@@H](O)C5)c4C)c3C)cc2OCc2cncc(C#N)c2)[nH]n1 [Example 2025, (R)-5-((4-chloro-5-((3′-(3-(3-hydroxypyrrolidin-1-yl)propoxy)-2,2′-dimethyl-[1,1′-biphenyl]-3-yl)methoxy)-2-((methyl((3-methyl-1H-pyrazol-5-yl)methyl)amino)methyl)phenoxy)methyl)nicotinonitrile]"
4,1.9,"Cc1c(COc2cc(OCc3cncc(C#N)c3)c(CN(C)Cc3ccn(C)n3)cc2Cl)cccc1-c1cccc(OCCCN2CC[C@@H](O)C2)c1C [Example 2026, (R)-5-((4-chloro-5-((3′-(3-(3-hydroxypyrrolidin-1-yl)propoxy)-2,2′-dimethyl-[1,1′-biphenyl]-3-yl)methoxy)-2-((methyl((1-methyl-1H-pyrazol-3-yl)methyl)amino)methyl)phenoxy)methyl)nicotinonitrile]"
5,0.2,"Cc1c(COc2cc(OCc3cncc(C#N)c3)c(CN(C)Cc3ccccn3)cc2Cl)cccc1-c1cccc(OCCCN2CC[C@@H](O)C2)c1C [Example 2028, (R)-5-((4-chloro-5-((3′-(3-(3-hydroxypyrrolidin-1-yl)propoxy)-2,2′-dimethyl-[1,1′-biphenyl]-3-yl)methoxy)-2-((methyl(pyridin-2-ylmethyl)amino)methyl)phenoxy)methyl)nicotinonitrile]"
6,4.1,"Cc1c(COc2cc(OCc3cncc(C#N)c3)c(CN(C)Cc3ccncc3)cc2Cl)cccc1-c1cccc(OCCCN2CC[C@@H](O)C2)c1C [Example 2029, (R)-5-((4-chloro-5-((3′-(3-(3-hydroxypyrrolidin-1-yl)propoxy)-2,2′-dimethyl-[1,1′-biphenyl]-3-yl)methoxy)-2-((methyl(pyridin-4-ylmethyl)amino)methyl)phenoxy)methyl)nicotinonitrile]"
7,1.1,"Cc1c(COc2cc(OCc3cncc(C#N)c3)c(CN(C)Cc3cnccn3)cc2Cl)cccc1-c1cccc(OCCCN2CC[C@@H](O)C2)c1C [Example 2030, (R)-5-((4-chloro-5-((3′-(3-(3-hydroxypyrrolidin-1-yl)propoxy)-2,2′-dimethyl-[1,1′-biphenyl]-3-yl)methoxy)-2-((methyl(pyrazin-2-ylmethyl)amino)methyl)phenoxy)methyl)nicotinonitrile]"
8,0.2,"Cc1c(COc2cc(OCc3cncc(C#N)c3)c(CN(C)Cc3cccnn3)cc2Cl)cccc1-c1cccc(OCCCN2CC[C@@H](O)C2)c1C [Example 2031, (R)-5-((4-chloro-5-((3′-(3-(3-hydroxypyrrolidin-1-yl)propoxy)-2,2′-dimethyl-[1,1′-biphenyl]-3-yl)methoxy)-2-((methyl(pyridazin-3-ylmethyl)amino)methyl)phenoxy)methyl)nicotinonitrile]"
9,2.5,"Cc1c(COc2cc(OCc3cncc(C#N)c3)c(CN(C)Cc3cncnc3)cc2Cl)cccc1-c1cccc(OCCCN2CC[C@@H](O)C2)c1C [Example 2032, (R)-5-((4-chloro-5-((3′-(3-(3-hydroxypyrrolidin-1-yl)propoxy)-2,2′-dimethyl-[1,1′-biphenyl]-3-yl)methoxy)-2-((methyl(pyrimidin-5-ylmethyl)amino)methyl)phenoxy)methyl)nicotinonitrile]"
